Data taken from article PMC7176418 (Science Advances, 2020).

Assays:
Assay in all cases: biolayer interferometry
Type in all cases: binding
Snail [1] = molecular target: Snail (Homo sapiens, UniProt O95863, R174A)
Snail [2] = molecular target: Snail (Homo sapiens, UniProt O95863)
Slug (Snail2) = molecular target: T1, Slug (Snail2) (Homo sapiens, UniProt O43623)
T1 sequence (O43623 1-268): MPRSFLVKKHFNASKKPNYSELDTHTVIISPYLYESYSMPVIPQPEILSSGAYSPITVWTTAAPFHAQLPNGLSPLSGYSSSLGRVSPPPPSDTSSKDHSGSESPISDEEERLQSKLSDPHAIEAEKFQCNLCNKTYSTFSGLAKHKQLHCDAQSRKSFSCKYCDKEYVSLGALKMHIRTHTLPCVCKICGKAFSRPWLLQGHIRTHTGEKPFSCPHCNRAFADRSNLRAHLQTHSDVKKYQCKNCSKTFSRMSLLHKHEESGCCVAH

Sequence of Snail (Homo sapiens, UniProt O95863, R174A) (O95863 whole entry R174A): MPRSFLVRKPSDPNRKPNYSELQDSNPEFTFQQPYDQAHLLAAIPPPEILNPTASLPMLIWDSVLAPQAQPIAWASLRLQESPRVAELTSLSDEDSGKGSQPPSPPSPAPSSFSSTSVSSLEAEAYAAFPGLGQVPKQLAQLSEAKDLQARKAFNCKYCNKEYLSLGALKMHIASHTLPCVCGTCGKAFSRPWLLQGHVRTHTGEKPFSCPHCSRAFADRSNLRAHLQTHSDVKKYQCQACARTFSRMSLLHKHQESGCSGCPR
Sequence of Snail (Homo sapiens, UniProt O95863) (O95863 whole entry): as the sequence (O95863 whole entry R174A) above, with A174R counted along it

Kd (Snail [1]): 3000 nM | Kd (Snail [2]): 180 nM | Kd (Slug (Snail2)): 600 nM
Structure (SMILES): Cc1cc(Nc2nc(SCc3ccc(C(=O)Nc4ccc(F)cc4N)cc3)nn3cccc23)n[nH]1 [CYD19]
